According to patent publication US7317040B2, “Nitric oxide synthase inhibitor phosphate salt” (SmithKline Beecham Corporation, priority 2000, dated 2008):

Experiment: Hygroscopicity: % weight change (w/w) against target relative humidity at 25 degrees C (moisture sorption isotherm)
Assay type: physicochemical
Description: The hygroscopicities of three samples of the compound of formula (I) monohydrate prepared in accordance with the above method were tested by measuring their % weight change (w/w) over a target relative humidity band of 0 to 90% at 25 degrees C.
To make these measurements, the following instruments and parameters were used: • Hiden IGASORP, Serial: IGA SA-040; • Hiden Intelligent Analyser, Model: HAS-022-120E, Serial: HALIGA-0042; • Flow=495 ml/min
The hydroscopicity of a sample of the compound of formula (I) trihydrate prepared in accordance with the above method was tested by measuring % weight change (w/w) over a target relative humidity band of 0 to 90% at 25° C.
The hygroscopicity of a sample of the dihydrochloride salt prepared in accordance with the above method was tested by measuring its % weight change (w/w) over a target relative humidity band of 30 to 80% at 25 degrees C.

SMILES | uptake of atmospheric moisture (below a relative humidity of 70%, three samples, FIGS. 1 to 3) | uptake of atmospheric moisture (above 50% relative humidity, FIG. 4) | mass change (at 55% relative humidity) | mass change (at 60% relative humidity) | mass change (at 65% relative humidity) | mass change (over a relative humidity range of 30-75%)
CC(=N)NCCSCC[C@H](N)C(=O)O.O.O=P(O)(O)O [compound of formula (I) monohydrate, (2S)-2-amino-4-{[2-(ethanimidoylamino)ethyl]thio}butanoic acid, compound with phosphoric acid, monohydrate] | no significant uptake of atmospheric moisture |  |  |  |  | 
CC(=N)NCCSCC[C@H](N)C(=O)O.Cl [dihydrochloride salt, (2S)-2-amino4-{[2-(ethanimidoylamino)ethyl]thio}butanoic acid, compound with hydrochloric acid] |  | rapid uptake of atmospheric moisture | about 11% | about 24% | about 32% | about 47%
